Data on 30 compounds can be found in patent US20240390383A1, “DIOXAZINES AND THEIR USE IN TREATMENT OF GBA-RELATED DISEASES” (ZEVRA DENMARK A/S, priority 2021, published 2024).

Marks after values point to notes of the source that are not given here.

The test has as its target T1, GCase (GBA) in human fibroblast cell line GM10915 harboring the L444P GBA mutation (Homo sapiens, UniProt P04062, L483P).
T1 construct: Human fibroblast cell line GM10915 harboring the L444P GBA mutation; host or cells: GM10915 human fibroblasts
T1 sequence (P04062 40-536 L483P): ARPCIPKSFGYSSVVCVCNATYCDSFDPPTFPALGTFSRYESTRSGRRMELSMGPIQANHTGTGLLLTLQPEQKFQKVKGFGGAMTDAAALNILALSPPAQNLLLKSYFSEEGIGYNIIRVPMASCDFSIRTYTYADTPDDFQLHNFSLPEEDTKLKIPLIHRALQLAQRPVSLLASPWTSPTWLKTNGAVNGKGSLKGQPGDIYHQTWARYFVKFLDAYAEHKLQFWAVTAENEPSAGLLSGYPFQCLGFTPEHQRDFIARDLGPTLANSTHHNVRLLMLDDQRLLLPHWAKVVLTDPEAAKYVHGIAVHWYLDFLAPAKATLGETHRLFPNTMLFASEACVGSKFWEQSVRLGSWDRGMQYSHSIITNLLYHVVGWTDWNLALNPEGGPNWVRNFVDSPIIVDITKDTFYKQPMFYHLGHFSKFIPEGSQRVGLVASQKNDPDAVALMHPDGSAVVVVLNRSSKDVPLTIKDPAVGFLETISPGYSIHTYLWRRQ
The test can be described thus: GCase activity assay (4-MUG substrate, normalised to crystal violet staining) in L444P GBA fibroblasts. It is filed as cell-based. The conditions noted are these: 5 days exposure; for GBA EC1.5: concentration giving 150% GCase activity (1.5-fold induction), 8-point dose range; for Emax: maximum percent GCase activity relative to untreated cells in the dose range tested. The protocol:
Human fibroblast cell line GM10915 harboring the L444P GBA mutation was obtained from Coriell Biorepositories.
All chemicals (Glacial acetic acid, Glycine, 4-Methylumbelliferyl b-D-glucopyranoside (4-MUG), Sodium acetate trihydrate, Sodium hydroxide, Crystal violet, SDS, Ammonium hydroxide) were obtained from Sigma-Aldrich (Denmark) Compounds tested for GCase activity were dissolved in H2O or DMSO.
The GM10915 cell line was cultured under standard cell culture conditions (37° C. and 5% CO2) in complete DMEM medium supplemented with nonessential amino acids (NEAA), 1% Pen-Strep and 12% FCS. Cells were seeded at a density of 10^4 cells/well in 100 μL complete medium in one black 96-well plate for glucosylceramidase (GCase) activity measurement and in one clear 96-well plate for crystal violet staining to correct for cell density. Crystal violet staining is performed to obtain quantitative information about the relative density of cells adhering to multi-wells plates.
The assay was adapted from Sawkar et al (2002) and briefly described in the following. The day after seeding of cells, the medium was replaced with fresh medium containing the compounds to be tested. Compounds were tested in duplicate and in an 8-point diluted dose range to obtain a dose response. Cells were exposed with compounds for five days. Fresh compound was added every 2-3 days. PBS was included to define the basal level of GCase activity.
Cells were washed three times with 200 μL PBS per well and 50 μL of 2.5 mM 4-MUG buffer (4-MUG dissolved in 0.2 M acetate buffer pH 4.0) was added and the cells were incubated at 37° C., 5% CO2 for 23 hours. The reaction was stopped by adding 150 μL 0.2 M glycine buffer (pH 10.8). Fluorescence was measured with a Varioskan® Flash reader (Thermo Scientific) at an excitation/emission setting of 365/445 nm.
Cells were treated with compounds in a parallel setup identical to the setup to test for GCase activity. At the end of compound treatment, cells were washed once with 200 μL PBS per well and 50 μL 0.1% w/v crystal violet (in H2O) was added. Following 10 min. of incubation, the crystal violet solution was removed, and the cells were washed three times with 200 μL PBS and 100 μL 1% SDS was added to solubilize the stain. The plate was agitated on an orbital shaker for 10-30 min. Absorbance (A) is measured at […] using a Varioskan® Flash reader (Thermo Scientific).
The fluorescence signal (F) derived from the GCase measurement is normalized to the absorbance signal (A) derived from the crystal violet staining. The percent GCase activity resulting from compound treatment is calculated relative to the basal activity obtained from untreated cells.
Maximal effect of compounds (Emax) is determined from the dose response effects as the maximum “Percent GCase activity” achieved in the dose range tested.

As for `C[C@@H]1CNC[C@H]1C1=NOCC(CN2CCCCC2)O1` (relative stereo) [compound 551, rac-rel-trans-3-((3R,4R)-4-methylpyrrolidin-3-yl)-5-(piperidin-1-ylmethyl)-5,6-dihydro-1,4,2-dioxazine], the “GBA EC1.5” value worked out at 14 µM and the maximal effect (Emax) was 185%.

On to `C[C@@]1(C2=NOC[C@H](CN3CCCCC3)O2)CCCNC1` [compound 882], for which the “GBA EC1.5” value worked out at 5 µM and the Emax was determined as 214%.

With `O=C1CC(C2=NOCC(CN3CCCCC3)O2)CCN1` (centres unmarked) [compound 649], the “GBA EC1.5” value was 50 µM and the Emax was 103%.

For the compound `NC(=O)CN1CCCC(C2=NOCC(CN3CCCCC3)O2)C1` (racemic) [compound 711, rac-2-(3-(5-(piperidin-1-ylmethyl)-5,6-dihydro-1,4,2-dioxazin-3-yl)piperidin-1-yl)acetamide], the “GBA EC1.5” value was 38 µM and the maximal effect (Emax) was determined as 198%.

Consider `COCC1(C2=NOCC(CN3CCCCC3)O2)CCNC1` (racemic) [compound 594, rac-3-(3-(methoxymethyl)pyrrolidin-3-yl)-5-(piperidin-1-ylmethyl)-5,6-dihydro-1,4,2-dioxazine], for which the “GBA EC1.5” value was 49 µM and the maximum response (Emax) worked out at 152%.

Regarding `N[C@H]1CN[C@H](C2=NOCC(CN3CCCCC3)O2)C1` (some centres unmarked) [compound 597], the “GBA EC1.5” value came to 50 µM and the maximum response (Emax) stood at 106%.

With `CC(=O)N1CCC(C2=NOCC(CN3CCCCC3)O2)CC1` (centres unmarked) [compound 683], the “GBA EC1.5” value was found to be 50 µM and the Emax is 113%.

On to `C1CCN(CC2CON=C([C@]34CC[C@H]3CNC4)O2)CC1` (relative stereo) [compound 485, rac-rel-trans-3-((1R,5R)-3-azabicyclo[3.2.0]heptan-1-yl)-5-(piperidin-1-ylmethyl)-5,6-dihydro-1,4,2-dioxazine di-2,2,2-trifluoroacetate], for which the “GBA EC1.5” value worked out at 25 µM and the Emax came to 174%.

As to `CN1CCN(CC2CON=C(C3(Cc4cccnc4)CCNCC3)O2)CC1` (centres unmarked) [compound 686], the “GBA EC1.5” value stood at 50 µM and the maximum response (Emax) amounted to 97%.

In the case of `CC1CC(C2=NOCC(CN3CCCCC3)O2)CN1` (racemic) [compound 560, rac-3-(5-methylpyrrolidin-3-yl)-5-(piperidin-1-ylmethyl)-5,6-dihydro-1,4,2-dioxazine], the “GBA EC1.5” value was 8 µM and the maximum response (Emax) amounted to 244%.

On to `c1nc(C2CCNCC2)sc1C1=NOCC(CN2CCCCC2)O1` (centres unmarked) [compound 874], for which the “GBA EC1.5” value came to 5 µM and the maximal response (Emax) came to 194%.

Consider `c1sc(C2CCCNC2)nc1C1=NOCC(CN2CCCCC2)O1` (centres unmarked) [compound 876], for which the “GBA EC1.5” value amounted to 4 µM and the maximal response (Emax) stood at 180%.

With `CN(C)CCC1=NOCC(CN2CCCCC2)O1` (racemic) [compound 779, rac-N,N-dimethyl-2-(5-(piperidin-1-ylmethyl)-5,6-dihydro-1,4,2-dioxazin-3-yl)ethan-1-amine], the “GBA EC1.5” value turned out to be 11 µM and the Emax turned out to be 259%.

As to `C1CCN(CC2CON=C([C@@]34CNC[C@@H]3C4)O2)CC1` (relative stereo) [compound 482, rac-rel-trans-3-((1R,5R)-3-azabicyclo[3.1.0]hexan-1-yl)-5-(piperidin-1-ylmethyl)-5,6-dihydro-1,4,2-dioxazine], the “GBA EC1.5” value came out at 14 µM and the Emax was found to be 268%.

On to `NC(=O)N1CCCC(C2=NOCC(CN3CCCCC3)O2)C1` (centres unmarked) [compound 717], for which the “GBA EC1.5” value amounted to 50 µM and the Emax is 111%.

Take `CN1C(=O)CC(C2=NOCC(CN3CCCCC3)O2)c2ccccc21` (centres unmarked) [compound 664]: the “GBA EC1.5” value was determined as 50 µM and the maximal effect (Emax) is 137%.

As for `COc1cncc(CNCCC2=NOCC(CN3CCCCC3)O2)c1` (racemic) [compound 806, rac-N-((5-methoxypyridin-3-yl)methyl)-2-(5-(piperidin-1-ylmethyl)-5,6-dihydro-1,4,2-dioxazin-3-yl)ethan-1-amine], the “GBA EC1.5” value worked out at 40 µM and the Emax was 183%.

As for `Nc1c(Br)cc(Br)cc1CN[C@H]1CC[C@H](O)CC1` [Ambroxol, reference compound], the “GBA EC1.5” value was >20* *The 1.5-fold induction criteria was not reached within the tested concentration range μM.

`CN1CCC(C2=NOCC(CN3CCCCC3)O2)C1` (racemic) [compound 546, rac-3-(1-methylpyrrolidin-3-yl)-5-(piperidin-1-ylmethyl)-5,6-dihydro-1,4,2-dioxazine]: the “GBA EC1.5” value came to 18 µM and the Emax is 253%.

Consider `C1CCN(CC2CON=C(CC3CCNCC3)O2)CC1` (racemic) [compound 479, rac-5-(piperidin-1-ylmethyl)-3-(piperidin-4-ylmethyl)-5,6-dihydro-1,4,2-dioxazine], for which the “GBA EC1.5” value was 35 µM and the maximal effect (Emax) is 184%.

Take `CN(C)C(=O)N1CCC(C2=NOCC(CN3CCCCC3)O2)CC1` (centres unmarked) [compound 684]: the “GBA EC1.5” value came to 50 µM and the Emax came to 109%.

Turning to `OC1(C2=NOCC(CN3CCCCC3)O2)CCNCC1` (centres unmarked) [compound 650], the “GBA EC1.5” value was 50 µM and the Emax was determined as 141%.

For the compound `CNC1CNCC(C2=NOCC(CN3CCCCC3)O2)C1` (racemic) [compound 756, rac-N-methyl-5-(5-(piperidin-1-ylmethyl)-5,6-dihydro-1,4,2-dioxazin-3-yl)piperidin-3-amine], the “GBA EC1.5” value is 39 µM and the maximal effect (Emax) was 121%.

Consider `c1cncc(CC2(C3=NOCC(CN4CCCCC4)O3)CCOCC2)c1` (centres unmarked) [compound 552], for which the “GBA EC1.5” value was found to be 50 µM and the maximal response (Emax) was 115%.

For `CN1CCN(CCC2=NOCC(CN3CCCCC3)O2)CC1` (racemic) [compound 823, rac-3-(2-(4-methylpiperazin-1-yl)ethyl)-5-(piperidin-1-ylmethyl)-5,6-dihydro-1,4,2-dioxazine], the “GBA EC1.5” value amounted to 18 µM and the maximum response (Emax) worked out at 312%.

As for `C1CCN(CCC2=NOCC(CN3CCCCC3)O2)CC1` (racemic) [compound 816, rac-3-(2-(piperidin-1-yl)ethyl)-5-(piperidin-1-ylmethyl)-5,6-dihydro-1,4,2-dioxazine], the “GBA EC1.5” value is 4 µM and the Emax was 181%.

Turning to `Cc1ncccc1CC1(C2=NOCC(CN3CCCCC3)O2)CCNCC1` (racemic) [compound 561, rac-3-(4-((2-methylpyridin-3-yl)methyl)piperidin-4-yl)-5-(piperidin-1-ylmethyl)-5,6-dihydro-1,4,2-dioxazine], the “GBA EC1.5” value amounted to 5 µM and the Emax was 184%.

`c1csc(N2CCC(C3=NOCC(CN4CCCCC4)O3)CC2)n1` (centres unmarked) [compound 635]: the “GBA EC1.5” value turned out to be 50 µM and the maximal response (Emax) was 135%.

With `Fc1cncc(CC2(C3=NOCC(CN4CCCCC4)O3)CCNCC2)c1` (racemic) [compound 528, rac-3-(4-((5-fluoropyridin-3-yl)methyl)piperidin-4-yl)-5-(piperidin-1-ylmethyl)-5,6-dihydro-1,4,2-dioxazine], the “GBA EC1.5” value was 6 µM and the maximal effect (Emax) came out at 181%.

On to `CC1(C2=NOCC(CN3CCCCC3)O2)CCNC1` (racemic) [compound 465, rac-3-(3-methylpyrrolidin-3-yl)-5-(piperidin-1-ylmethyl)-5,6-dihydro-1,4,2-dioxazine], for which the “GBA EC1.5” value is 10 µM and the maximal response (Emax) was 283%.

Broadly, the Emax is the maximal effect, on the per cent scale that the assay sets.
